The values below come from patent US20140128380A1, “METHODS OF MODULATING THE ACTIVITY OF THE MC1 RECEPTOR AND TREATMENT OF CONDITIONS RELATED TO THIS RECEPTOR” (Mimetica Pty Ltd, priority 2009, published 2014).

Bounds are passed on as bounds.

Assay [1] deals with T1, human MC1R (Homo sapiens, UniProt Q01726). The assay can be described thus: cAMP stimulation assay, agonist mode, HEK 293 cells transiently expressing MC1 receptor (Alphascreen). Format: cell-based. More on the design: host or cells: HEK 293 (transient transfection). As to conditions: HEK293 cell; read-out: human MC1R agonism (cAMP EC50 HEK293 cell). On the procedure: HEK 293 cells transiently expressing the melanocortin MC1 receptor were suspended in stimulation buffer (Hanks buffered saline solution (HBSS), 0.1% bovine serum albumin, protease inhibitors and 0.5 mM 3-Isobutyl-1-methylxanthine) at 4×10^6 cells/mL. 5 μl of cells, plus the compounds/peptides as described below, were added to wells of a 384-well plate as soon as possible after resuspension.
T1 sequence (Q01726 whole entry): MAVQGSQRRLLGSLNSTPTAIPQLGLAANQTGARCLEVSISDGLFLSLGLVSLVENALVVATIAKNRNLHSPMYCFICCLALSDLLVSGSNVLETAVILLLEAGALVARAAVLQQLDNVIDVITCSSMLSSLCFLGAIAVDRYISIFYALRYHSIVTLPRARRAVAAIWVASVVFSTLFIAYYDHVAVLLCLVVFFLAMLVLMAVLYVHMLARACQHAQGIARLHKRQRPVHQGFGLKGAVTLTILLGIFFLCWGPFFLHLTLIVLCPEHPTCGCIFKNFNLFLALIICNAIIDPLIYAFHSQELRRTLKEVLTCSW
To detect agonist activity, test compounds at varying concentrations were diluted in stimulation buffer at two times concentrate and 5 μl was added to wells containing cells. Positive control wells contained NDP-MSH or alpha-MSH alone (no compound) at two times concentrate
Basal level (of cAMP) control wells contained stimulation buffer only (no agonist or compounds). Known concentrations of cAMP (standards) in stimulation buffer were included on the plate, but no cells were added to these wells. The plate was then incubated for 30 mins at 37° C. with gentle shaking. After incubation, 10 μl of lysis buffer (10% Tween 20, 1 M HEPES, 0.1% BSA, protease inhibitors, ddH2O) was added to all wells to be measured. Detection of cAMP was then achieved using the Alphascreen cAMP kit (Perkin Elmer, USA), briefly described as follows. A dilution of 10 μl acceptor beads/mL of lysis buffer was prepared in low light conditions. 5 μl of diluted acceptor beads were added to each well to be measured, then the plate was incubated for 30 mins at room temperature, in the dark, with gentle shaking. In low light conditions, donor beads were diluted at 10 μl/mL of lysis buffer, to which 0.75 μl biotinylated cAMP/mL of lysis buffer was added. This mixture was allowed to incubate for 30 mins at room temperature (in the dark) before proceeding with the assay. Following incubation, 5 μl/mL of biotinylated cAMP/Donor bead mix were added per well in low light conditions and the plate was incubated in the dark, at room temperature, for a further hr. Plates were read on an Envision plate reader (Perkin Elmer) after 1 hr and ˜16 hrs incubation. cAMP concentration in the cells was determined by the use of a ‘standard curve’ generated from the output of known cAMP concentrations as described below.
Each assay plate contained a “standard curve” of known concentrations of cAMP, in 10 fold dilutions. This is an essential part of the assay as there is high inter-plate variability. The plates were read on an Envision multilabel plate reader fitted with Alphascreen technology and the raw data was imported into GraphPad Prism 4 software (GraphPad, USA) for analysis.

For assay [2], the target named is T2, human MC1R (hMC1R) (Homo sapiens, UniProt Q01726).
T2 construct: purchased Perkin Elmer ES-195-M400UA
T2 sequence (Q01726 whole entry): as above
The assay can be described thus: Human MC1R radioligand binding assay (displacement of 125I-labeled NDP-MSH, Perkin Elmer hMC1R membranes). As to conditions: displacement of [125I]NDP-MSH, compounds tested as trifluoroacetate or hydrochloride salts or free base. The method, boiled down:
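Frozen human MC1R membranes were incubated with in-house iodinated, HPLC-purified [125I]NDP-MSH for 1 hr at 37° C. Binding was measured as displacement of the labeled peptide.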

For assay [3], the target named is T1, human MC1R. As to the kind of experiment: cAMP accumulation in MM96L cells transiently transfected with wild type MC1R. Format: cell-based. The following applies: 30 min stimulation with 10 μM compound. On the procedure: In a similar assay testing for MC1R agonism, MM96L cells were transiently transfected with wild type MC1R and stimulated with compound (10 μM) for different time points, with cAMP accumulation compared to basal cAMP levels and the cAMP response to stimulation with NDP-MSH
(Changes in cAMP serve as a functional read-out for many G protein-coupled receptors.)

Broadly, the EC50 is the concentration that produces a half-maximal response. The IC50 is the concentration that inhibits the measured activity by half. Regarding `N=C(N)NCCC[C@H]1C(=O)N(C(c2ccccc2)c2ccccc2)CC[C@H]2CN(Cc3ccc(-c4ccccc4)cc3)C(=O)N21` [Compound 110, 1-(3-((5S,9aS)-7-benzhydryl-2-(biphenyl-4-ylmethyl)-3,6-dioxooctahydro-1H-imidazo[1,5-d][1,4]diazepin-5-yl)propyl)guanidine], the EC50 in assay [1] turned out to be 78 µM. In assay [2], the IC50 is under 10 µM. In assay [3], the “human MC1R agonism (cAMP, fold incease over basal level)” value worked out at 1.5 fold.
